Source: patent US20260055126A1, “SMALL MOLECULE COMPOUNDS WITH PHOSPHORYLATED ARYL STRUCTURES AND USE THEREOF” (HANGZHOU PHECDAMED CO., LTD., priority 2022, published 2026)

What was measured:
[1] = molecular target: recombinant TEAD4 protein (217-434, Uniprot ID: Q15561) (Homo sapiens (Human), UniProt Q15561); experiment: Thermal shift assay (protein melting point curve), TEAD4; type: binding; conditions: 10 μM TEAD protein, 50 μM test compound
[2] = Mouse plasma pharmacokinetic test; type: in vivo, CD-1 mice
From the text: In this example, different compounds are used to perform a mouse pharmacokinetic experiment, and the specific steps are as follows: Animal information: CD-1 mice, male, about 20 g, purchase from Beijing Weitonglihua Experimental Animal Technology Co., Ltd.
Animal dietary status: Animals are not fasted before administration and allowed to drink water freely.
Compound preparation method: for intragastric administration (IG)(G1 group), preparing with 0.5% CMC-Na, and for intravenous injection(IV) (G2 group), preparing 5% DMSO+30% PEG400+65% water. […]
Sampling time points of G1 group: 8 points in total, namely 10 min, 30 min, 1 h, 2 h, 4 h, 6 h, 8 h and 24 h after administration, among them, animals G1M01-G1M03 are sampled at 3 time points, namely 10 min, 1 h and 6 h; animals G1M04-G1M06 are sampled at 3 time points, namely 30 min, 2 h and 8 h; animals G1M07-G1M09 are sampled at 2 time points, namely 4 h and 24 h.
Sampling time points of G2 group: 9 points in total, namely 5 min, 10 min, 30 min, 1 h, 2 h, 4 h, 6 h, 8 h, 24 h after administration. It is recommended that animals G2M01-G2M03 are sampled at 3 time points, namely 5 min, 1 h, and 6 h; animals G2M04-G2M06 are sampled at 3 time points, namely 10 min, 2 h, and 8 h; animals G2M07-G2M09 are sampled at 3 time points, namely 30 min, 4 h, and 24 h.
Sample collection: On the day of the experiment, collecting approximately 0.1 mL of whole blood samples at each preset time point and placing in EDTA-K2 anticoagulant tubes.
Sample processing: Within 30 minutes after whole blood sample collection, centrifuging at 4° C., 12,000 rpm for 5 minutes to separate plasma, collecting the upper plasma sample into a sample tube, and freezing the plasma sample in a −10˜−30° C. refrigerator within 30 minutes and transferring to a −60˜−90° C. refrigerator within 24 hours.
Sample testing and data processing: LC/MS/MS testing, WinNonlin for fitting and pharmacokinetic parameter calculation.

[3] = molecular target: recombinant TEAD3 protein (218-435, Uniprot ID: Q99594) (Homo sapiens (Human), UniProt Q99594); experiment: Thermal shift assay (protein melting point curve), TEAD3; type: binding; conditions: 10 μM TEAD protein, 50 μM test compound
[4] = In vitro liver microsome stability, mouse; type: in vitro ADME; conditions: mouse liver microsomes
Description: Testosterone is selected as the positive reference compound. The specific method is as follows:
Preparing 0.1MK3 PO4 (pH 7.4) buffer and 3×NADPH stock solution (6 mM, 5 mg/mL), and preheating in a 37° C. water bath; preparing spiking solution of tested compound and control compound: adding 5 μL compound stock solution (10 mM) to 95 μL acetonitrile; preparing 1.5 μM spiking solution in microsomes (0.75 mg/mL): add 1.5 μL spiking solution and 18.75 μL liver microsome solution (20 mg/mL) to 479.75 μL K3PO4 buffer; taking 30 μL spiking solution in microsomes and adding it to the multiwell plate, and incubating at 37° C. for 5 min; adding 15 μL of NADPH stock solution to each well, starting to react, and timing; adding 150 μL of acetonitrile solution containing IS at 0 min, 5 min, 15 min, 30 min, 45 min and 60 min respectively to terminate the reaction; after 10 min of oscillation, centrifuging the reaction at 6000 rpm for 15 min; taking 80 μL of supernatant from each well for LC/MS detection and calculating Ti/2.
Liver microsomes of mice, rats, dogs, and human used in the experiment are purchased from Xenotech.

Chain of recombinant TEAD3 protein (218-435, Uniprot ID: Q99594) (Q99594 218-435): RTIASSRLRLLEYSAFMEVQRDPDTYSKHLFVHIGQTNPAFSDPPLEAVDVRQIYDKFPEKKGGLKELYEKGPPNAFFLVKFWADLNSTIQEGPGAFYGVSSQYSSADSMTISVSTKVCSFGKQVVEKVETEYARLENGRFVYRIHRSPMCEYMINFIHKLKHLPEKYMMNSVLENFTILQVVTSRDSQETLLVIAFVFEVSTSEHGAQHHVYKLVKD
Chain of recombinant TEAD4 protein (217-434, Uniprot ID: Q15561) (Q15561 217-434): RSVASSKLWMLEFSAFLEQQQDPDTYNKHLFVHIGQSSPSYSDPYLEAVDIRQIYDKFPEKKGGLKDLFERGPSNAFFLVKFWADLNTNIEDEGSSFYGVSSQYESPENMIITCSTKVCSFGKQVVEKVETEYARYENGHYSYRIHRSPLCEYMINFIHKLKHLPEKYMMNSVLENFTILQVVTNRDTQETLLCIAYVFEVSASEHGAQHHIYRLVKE

Δ T m (TEAD4) [1]: ++
F % ([2]; CD-1 mice, IG 10 mg/kg vs IV 1 mg/kg): 51.9%
AUC0-t ([2]; CD-1 mice, single IG 10 mg/kg): 4662 ng·h/mL
AUC0-∞ ([2]; CD-1 mice, single IG 10 mg/kg): 5688 ng·h/mL
Cmax ([2]; CD-1 mice, single IG 10 mg/kg): 1477 ng/mL
MRT0-t ([2]; CD-1 mice, single IG 10 mg/kg): 2.84 h
MRT0-∞ ([2]; CD-1 mice, single IG 10 mg/kg): 4.66 h
Tmax ([2]; CD-1 mice, single IG 10 mg/kg): 30 min
t1/2 ([2]; CD-1 mice, single IG 10 mg/kg): 3.46 h
AUC0-t ([2]; CD-1 mice, single IV 1 mg/kg): 899 ng·h/mL
AUC0-∞ ([2]; CD-1 mice, single IV 1 mg/kg): 924 ng·h/mL
CL ([2]; CD-1 mice, single IV 1 mg/kg): 1.082 L/h/kg
Cmax ([2]; CD-1 mice, single IV 1 mg/kg): 598 ng/mL
MRT0-t ([2]; CD-1 mice, single IV 1 mg/kg): 1.55 h
MRT0-∞ ([2]; CD-1 mice, single IV 1 mg/kg): 1.80 h
Vss ([2]; CD-1 mice, single IV 1 mg/kg): 1.947 L/kg
t1/2 ([2]; CD-1 mice, single IV 1 mg/kg): 1.94 h
pharmacokinetic properties in mice ([2]; mice): good pharmacokinetic properties
Δ T m (TEAD3) [3]: +
mouse half-life [4]: 33.9 min
Compound: CP(C)(=O)c1ccc(NCc2ccc(C(F)(F)F)cc2)c(-c2nccc(OC3COC3)n2)c1 [Compound 17]
